Measurements from ChEMBL document CHEMBL1201862, “PubChem BioAssay data set” (2004).
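Grown in 96-well plates, cells were treated for 48 hours with each compound at five concentrations. Insufficient inhibition: endpoint recorded as highest concentration tested. GI50 marks 50% less growth.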 The source made the active and inactive calls. No stated cut-off is given here; in the data, active = GI50 up to about 1.1 µM and inactive = higher.

Key:
Test in all cases: NCI-60 cell line screen, 48 h
[1] = test system: ACHN
[2] = test system: MDA-MB-231
[3] = test system: UO-31
[4] = test system: UACC-62
[5] = test system: COLO 205
[6] = test system: SK-MEL-28
[7] = test system: Malme-3M
[8] = test system: SNB-75
[9] = test system: SF-295
[10] = test system: Hs-578T
[11] = test system: U-251
[12] = test system: MCF7
[13] = test system: MOLT-4
[14] = test system: HCT-15
[15] = test system: RXF 393
[16] = test system: 786-0
[17] = test system: KM12
[18] = test system: NCI/ADR-RES
[19] = test system: LOX IMVI
[20] = test system: HL-60

Row | SMILES | GI50 [1] | GI50 [2] | GI50 [3] | GI50 [4] | GI50 [5] | GI50 [6] | GI50 [7] | GI50 [8] | GI50 [9] | GI50 [10] | GI50 [11] | GI50 [12] | GI50 [13] | GI50 [14] | GI50 [15] | GI50 [16] | GI50 [17] | GI50 [18] | GI50 [19] | GI50 [20]
1 | COc1cccc([C@H]2CC(=O)c3cc4c(cc3N2)OCO4)c1 | 0.847 µM (active) | 0.424 µM (active) | 0.485 µM (active) | 0.406 µM (active) | 0.296 µM (active) | 4.82 µM (inactive) | 0.671 µM (active) | > 100 µM (inactive) | 0.296 µM (active) | 0.216 µM (active) | 0.393 µM (active) | 0.552 µM (active) | 0.938 µM (active) | 0.341 µM | 0.171 µM (active) | 0.418 µM (active) | 0.317 µM (active) | 0.296 µM (active) | 0.714 µM (active) | 
2 | OCCSCc1cc2c(O)c(c1)Cc1cc(CSCCO)cc(c1O)Cc1cc(CSCCO)cc(c1O)Cc1cc(CSCCO)cc(c1O)C2 | 3.19 µM (inactive) | 2.54 µM (inactive) | 13.8 µM (inactive) |  | 2.68 µM (inactive) | 3.56 µM (inactive) | 2.04 µM (inactive) |  | 5.02 µM (inactive) | 8.43 µM (inactive) | 4.48 µM (inactive) | 3.91 µM (inactive) | 3.35 µM (inactive) | 8.81 µM | 4.58 µM (inactive) | 3.29 µM (inactive) | 4.28 µM (inactive) | 22.2 µM (inactive) | 3.44 µM (inactive) | 4.04 µM (inactive)
3 | NC(=O)C1Cc2cc3c(cc21)OCO3 (centres undefined) | > 100 µM (inactive) | > 100 µM (inactive) | > 100 µM (inactive) | > 100 µM (inactive) | > 100 µM (inactive) |  | > 100 µM (inactive) | > 100 µM (inactive) | > 100 µM (inactive) | > 100 µM (inactive) |  | > 100 µM (inactive) |  | > 100 µM | > 100 µM (inactive) | > 100 µM (inactive) | > 100 µM (inactive) | > 100 µM (inactive) | > 100 µM (inactive) | 
4 | CCOC(=O)/C=C(/C(=O)OCC)n1ccc(N)nc1=O | > 100 µM (inactive) | > 100 µM (inactive) | > 100 µM (inactive) | > 100 µM (inactive) | 66.1 µM (inactive) | > 100 µM (inactive) | 44.6 µM (inactive) | 95.1 µM (inactive) | > 100 µM (inactive) | > 100 µM (inactive) | > 100 µM (inactive) | > 100 µM (inactive) | 92 µM (inactive) | > 100 µM |  | > 100 µM (inactive) | > 100 µM (inactive) | > 100 µM (inactive) | 97.7 µM (inactive) | 70.6 µM (inactive)
5 | O/N=C\c1c2c(cc3c1CCC3)CCC2 | > 100 µM (inactive) | > 100 µM (inactive) | > 100 µM (inactive) | > 100 µM (inactive) | > 100 µM (inactive) | > 100 µM (inactive) | > 100 µM (inactive) | 36.5 µM (inactive) | > 100 µM (inactive) | > 100 µM (inactive) | > 100 µM (inactive) | > 100 µM (inactive) | 25 µM (inactive) | > 100 µM |  | > 100 µM (inactive) | > 100 µM (inactive) | > 100 µM (inactive) | > 100 µM (inactive) | > 100 µM (inactive)
6 | COC(=O)CCC1=CCC2(SC)C(=O)Nc3cccc1c32 (centres undefined) | > 100 µM (inactive) | > 100 µM (inactive) | > 100 µM (inactive) | > 100 µM (inactive) | > 100 µM (inactive) | > 100 µM (inactive) | > 100 µM (inactive) | > 100 µM (inactive) | > 100 µM (inactive) | > 100 µM (inactive) | > 100 µM (inactive) | > 100 µM (inactive) | > 100 µM (inactive) | > 100 µM |  | > 100 µM (inactive) | > 100 µM (inactive) | > 100 µM (inactive) | > 100 µM (inactive) | > 100 µM (inactive)
7 | O=[As](O)(O)c1ccc2nc3cc([As](=O)(O)O)ccc3nc2c1 | > 100 µM (inactive) | > 100 µM (inactive) | > 100 µM (inactive) | > 100 µM (inactive) |  | > 100 µM (inactive) | > 100 µM (inactive) | > 100 µM (inactive) | > 100 µM (inactive) | > 100 µM (inactive) | > 100 µM (inactive) | > 100 µM (inactive) | > 100 µM (inactive) | > 100 µM | > 100 µM (inactive) | > 100 µM (inactive) | > 100 µM (inactive) | > 100 µM (inactive) | > 100 µM (inactive) | 
8 | ClC(Cl)(Cl)C1=N[C@H]2[C@H](Br)[C@@H]3O[C@@H](c4ccccc4)[C@H](c4ccccc4)O[C@@H]3[C@H]2O1 | 17.3 µM (inactive) | 23 µM (inactive) | 20.7 µM (inactive) | 16.3 µM (inactive) | 16.3 µM (inactive) | 20.3 µM (inactive) | 19.2 µM (inactive) | 20.9 µM (inactive) | 17.1 µM (inactive) | 23.8 µM (inactive) | 17.1 µM (inactive) | 17.3 µM (inactive) | 18.2 µM (inactive) | 27.2 µM | 20.5 µM (inactive) | 21.4 µM (inactive) | 20.1 µM (inactive) | 25.7 µM (inactive) | 17.1 µM (inactive) | 
9 | NC(=O)c1nnc2cc(F)ccc2c1N | 80.4 µM (inactive) | > 100 µM (inactive) | 67.3 µM (inactive) | 97.3 µM (inactive) | > 100 µM (inactive) |  | > 100 µM (inactive) | > 100 µM (inactive) | > 100 µM (inactive) | > 100 µM (inactive) | > 100 µM (inactive) | > 100 µM (inactive) | > 100 µM (inactive) | > 100 µM |  | > 100 µM (inactive) | > 100 µM (inactive) | > 100 µM (inactive) | 78.3 µM (inactive) | > 100 µM (inactive)
10 | CSc1ccccc1NC1=NCCO1 | > 100 µM (inactive) | > 100 µM (inactive) | > 100 µM (inactive) | > 100 µM (inactive) | > 100 µM (inactive) | > 100 µM (inactive) | > 100 µM (inactive) |  | > 100 µM (inactive) | > 100 µM (inactive) | > 100 µM (inactive) | > 100 µM (inactive) | > 100 µM (inactive) | > 100 µM | > 100 µM (inactive) | > 100 µM (inactive) | > 100 µM (inactive) | > 100 µM (inactive) | > 100 µM (inactive) | > 100 µM (inactive)
11 | C/C(=C\COP(=O)(O)OP(=O)(O)O)CC/C=C(\C)CNc1ccccc1 | > 50 µM (inactive) | > 50 µM (inactive) | > 50 µM (inactive) | > 50 µM (inactive) | > 50 µM (inactive) | > 50 µM (inactive) |  | 27.5 µM (inactive) | > 50 µM (inactive) | 26.4 µM (inactive) | > 50 µM (inactive) | > 50 µM (inactive) | 20.1 µM (inactive) | > 50 µM | > 50 µM (inactive) | > 50 µM (inactive) | > 50 µM (inactive) | > 50 µM (inactive) | > 50 µM (inactive) | 1.05 µM (active)
12 | N#Cc1nnc2c3c(-c4ccc(Cl)cc4)c(C#N)c(O)nc3nn2c1N | 8.11 µM (inactive) | 13.4 µM (inactive) | 6.25 µM (inactive) | 1.85 µM (inactive) | 11.7 µM (inactive) | 11.9 µM (inactive) | 14.4 µM (inactive) |  | 5.3 µM (inactive) | 3.4 µM (inactive) | 1.28 µM (inactive) | 2.06 µM (inactive) | 2.62 µM (inactive) | 8.83 µM | 3.98 µM (inactive) | 5.14 µM (inactive) | 11.9 µM (inactive) | 18.4 µM (inactive) | 2.85 µM (inactive) | 
13 | C/C=C(/C)C(=O)O[C@H]1CCN2CC=C(COC(=O)[C@@](O)([C@H](C)OC)C(C)(C)O)[C@H]12 | > 100 µM (inactive) | > 100 µM (inactive) | > 100 µM (inactive) | > 100 µM (inactive) | > 100 µM (inactive) | > 100 µM (inactive) |  | > 100 µM (inactive) | > 100 µM (inactive) | > 100 µM (inactive) | > 100 µM (inactive) | > 100 µM (inactive) | > 100 µM (inactive) | > 100 µM |  | > 100 µM (inactive) | > 100 µM (inactive) | > 100 µM (inactive) | > 100 µM (inactive) | > 100 µM (inactive)
14 | CCOc1ccc2c(c1)c(CC(=O)O)cn2C | > 100 µM (inactive) | > 100 µM (inactive) | > 100 µM (inactive) | > 100 µM (inactive) | > 100 µM (inactive) | > 100 µM (inactive) | > 100 µM (inactive) |  | > 100 µM (inactive) | > 100 µM (inactive) | > 100 µM (inactive) | > 100 µM (inactive) | > 100 µM (inactive) | > 100 µM | > 100 µM (inactive) | > 100 µM (inactive) | > 100 µM (inactive) | > 100 µM (inactive) | > 100 µM (inactive) | > 100 µM (inactive)
15 | CCn1c(-c2cc3ccccc3cc2OC(C)=O)n[nH]c1=S | 35.8 µM (inactive) | 26.1 µM (inactive) | 67.8 µM (inactive) |  |  | 32.4 µM (inactive) |  |  | 23.4 µM (inactive) | 15.2 µM (inactive) | 20.2 µM (inactive) | 30.8 µM (inactive) | 18.7 µM (inactive) | 27 µM | 11.1 µM (inactive) | 75.7 µM (inactive) | 27.6 µM (inactive) | 21.2 µM (inactive) | 37.2 µM (inactive) | 0.0805 µM (active)
